Structures can show the parent of a compound that is named as a salt.
Tests used:
[1] = biological target: T1, human GLP-1R (Homo sapiens, UniProt P43220, L260F); assay: CHO GLP-1R Clone C6 - Assay 2 (HTRF cAMP agonist assay); assay type: cell-based; settings: for EC50: CHO clone C6, low GLP-1R density, cAMP, geometric mean; for Emax: CHO clone C6, relative to saturating full agonist GLP-1 (1 μM), arithmetic mean
T1 construct: expressed in transfected cells; host or cells: CHO Flp-In T-REx, clonal line C6 (pcDNA5-FRT-TO)

[2] = biological target: T2, human GLP-1R (Homo sapiens, UniProt P43220, G168S); assay: CHO GLP-1R Clone H6 - Assay 1 (HTRF cAMP agonist assay); assay type: cell-based; settings: for EC50: CHO Clone H6, high GLP-1R density, cAMP, geometric mean; for Emax: CHO Clone H6, relative to saturating full agonist GLP-1 7-36 (1 μM), arithmetic mean
T2 construct: expressed in transfected cells
Outline: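 CHO Clone H6 cells stably expressing human GLP-1R (G168S) were plated 48 h, then given compound for 30 min at 37° C in HBSS/0.1% BSA/HEPES with 100 μM IBMX and 1% DMSO. cAMP was measured by HTRF against a standard curve.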

T2 sequence (P43220 24-463 G168S): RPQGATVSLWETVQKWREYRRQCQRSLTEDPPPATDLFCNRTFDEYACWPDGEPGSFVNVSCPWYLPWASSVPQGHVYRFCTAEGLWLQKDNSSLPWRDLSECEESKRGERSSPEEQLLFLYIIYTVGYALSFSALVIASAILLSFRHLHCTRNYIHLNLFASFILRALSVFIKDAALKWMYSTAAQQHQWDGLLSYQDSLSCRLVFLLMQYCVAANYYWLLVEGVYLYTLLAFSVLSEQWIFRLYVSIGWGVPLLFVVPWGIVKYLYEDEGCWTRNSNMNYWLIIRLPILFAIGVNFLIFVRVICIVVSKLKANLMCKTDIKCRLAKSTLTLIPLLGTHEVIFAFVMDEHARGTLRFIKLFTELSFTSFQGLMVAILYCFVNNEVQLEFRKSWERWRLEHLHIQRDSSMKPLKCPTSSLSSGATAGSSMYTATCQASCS
T1 sequence (P43220 24-463 L260F): as the sequence (P43220 24-463 G168S) above, with S145G, L237F counted along it

| SMILES | EC50 [1] [nM] | Emax [1] [%] | EC50 [2] [nM] | Emax [2] [%] |
| --- | --- | --- | --- | --- |
| C[C@@H]1CN(c2ccnc(OCc3ccc(Cl)cc3F)n2)CCN1Cc1nc2ccc(C(=O)O)cc2n1C[C@@H]1CCO1 [Example 75, ammonium 2-{[(2R)-4-{2-[(4-chloro-2-fluorobenzyl)oxy]pyrimidin-4-yl}-2-methylpiperazin-1-yl]methyl}-1-[(2S)-oxetan-2-ylmethyl]-1H-benzimidazole-6-carboxylate] | 370 | 100 | 21 | 88 |
| C[C@@H]1CN(Cc2nc3ccc(C(=O)O)cc3n2C[C@@H]2CCO2)[C@@H](C)CN1c1ccnc(OCc2ccc(Cl)cc2F)n1 [Example 76, ammonium 2-{[(2S,5R)-4-{2-[(4-chloro-2-fluorobenzyl)oxy]pyrimidin-4-yl}-2,5-dimethylpiperazin-1-yl]methyl}-1-[(2S)-oxetan-2-ylmethyl]-1H-benzimidazole-6-carboxylate] | 180 | 100 | 12 | 88 |
| C[C@H]1CN(c2ccnc(OCc3ccc(Cl)cc3F)n2)CCN1Cc1nc2ccc(C(=O)O)nc2n1C[C@@H]1CCO1 [Example 77, 2-{[(2S)-4-{2-[(4-chloro-2-fluorobenzyl)oxy]pyrimidin-4-yl}-2-methylpiperazin-1-yl]methyl}-3-[(2S)-oxetan-2-ylmethyl]-3H-imidazo[4,5-b]pyridine-5-carboxylic acid] | 110 | 110 | 4.4 | 100 |
| C[C@H]1CN(c2ccnc(OCc3ccc(Cl)cc3F)n2)CCN1Cc1nc2ccc(C(=O)O)cc2n1Cc1ncco1 [Example 78, 2-{[(2S)-4-{2-[(4-chloro-2-fluorobenzyl)oxy]pyrimidin-4-yl}-2-methylpiperazin-1-yl]methyl}-1-(1,3-oxazol-2-ylmethyl)-1H-benzimidazole-6-carboxylic acid, trifluoroacetate salt] | 440 | 81 | 17 | 79 |

Source: US12331041B2, “GLP-1 receptor agonists and uses thereof” (Pfizer Inc., priority 2018, dated 2025)
